Assay results: article PMC7794397, “Curbing gastrointestinal infections by defensin fragment modifications without harming commensal microbiota” (Communications Biology, 2021)
Values after ≈ are worked out from the molar mass of the structure shown. Values joined by “and” are separate entries in the source; they are usually repeats but may differ in a detail not shown here. Identical values can stand only once. Residues, ends and D or L forms follow the SMILES beside them. *: point of attachment. Palmitoyl = CCCCCCCCCCCCCCCC(=O)*; AEEA = NCCOCCOCC(=O)O

Tests used:
S. Typhimurium = experiment: Salmonella Typhimurium gastrointestinal infection in mice; type: in vivo, C57BL/6N mice; design: Body weight (% of initial): unit not given here
Method: For S. Typhimurium infections experiments, age- and sex-matched mice between 10 and 14 weeks of age were used. Both- female and male mice were used in experiments. […] Afterward, mice were supplied with water and food ad libitum. 20 h after streptomycin treatment, water and food were withdrawn again, 4 h before the mice were orally infected with 10^5 CFU of S. Typhimurium in 200 μl PBS. Drinking water ad libitum was supplied immediately and food 2 h post infection (p.i.). […] Mice were weighed every day to record potential body-weight loss. All mice were euthanized by asphyxiation with CO2 at indicated time points. Intestinal tissues (small intestine, cecum, colon) were removed aseptically. To collect intestinal content, organs were flushed with PBS. Organs were opened longitudinally, cleaned thoroughly with PBS and weighted. Organs and content were homogenized in PBS using a Polytron homogenizer ([…]).

[1] = test system: several pathogenic bacteria; experiment: Radial diffusion assay, all tested strains; type: cell-based
Method: Antimicrobial activity was analyzed by radial diffusion assay. Log-phase bacteria were cultivated for up to 18 h in TSB (TSB, Becton Dickinson, USA), washed and diluted to 4 × 10^6 CFU in 10 ml agar. Bacteria were incubated in 10 ml of 10 mM sodium phosphate, pH 7.4, containing 0.3 mg/ml of TSB powder and 1% (w/v) low EEO-agarose (AppliChem). 1 µg of each lipopeptide was pipetted into punched wells in a final volume of 4 µl and diffused into the gel for 3 h at 37 °C. After that, a nutrient-rich gel with 6% TSB (w/v) and 1% agarose in 10 mM sodium phosphate buffer was poured on top of the first gel and incubated for up to 24 h at 37 °C. Then the diameter of inhibition zones was measured.

E. coli 6940 3-MRGN = settings: 2 h
Method: (§1) Bactericidal activity was assessed by broth microdilution assay. Log-phase bacteria were collected by centrifugation (2500 rpm, 10 min, 4 °C), washed twice with 10 mM sodium phosphate buffer containing 1% (w/v) TSB and the optical density at 600 nm was adjusted to 0.1. Approximately 5 × 10^5 CFU/ml bacteria were incubated with serial peptide concentrations (1.17–150 µM) in a final volume of 100 µl in 10 mM sodium phosphate buffer containing 1% (w/v) TSB for 2 h at 37 °C. After incubation, 100 µl of 6% TSB (w/v) were added and absorbance was measured at 600 nm (Tecan, Switzerland) and monitored for 18 h. Afterward, 100 µl per well were plated on LB agar to determine the numbers of viable bacteria microbiologically. Bactericidal activity is expressed as the LC99.9, the lowest concentration that killed ≥99.9 % of bacteria.

[2] = test system: A. baumannii DSM30007 4-MRGN
Method: as §1

E. faecium DSM2918 VRE = settings: DSM2918, 2 h
Method: as §1

S. aureus DSM20213 MRSA = settings: DSM20213, 2 h
Method: as §1

[3] = test system: P. aeruginosa DSM1117 4-MRGN; settings: DSM1117, 2 h
Method: as §1

P. aeruginosa PAO1 = type: cell-based
Method: (§2) After incubation at 37 °C and 150 rpm for 1–120 min, a sample of 50 µl was taken from the suspension and added to 50 µl of a 0.05% (v/v) sodium polyanethol sulfonate (Sigma-Aldrich) solution, which neutralizes remaining peptide activity, and plated on LB agar to determine the number of viable bacteria.

S. aureus ATCC25923 = type: cell-based
Method: as §2

S. aureus NCTC8325 = experiment: Bacterial membrane potential (DiOC2(3)); type: cell-based; settings: 30 min of treatment
Method: For determination of membrane potential changes, S. aureus NCTC8325 was grown to log-phase in LB + 0.1% glucose, harvested and the optical density at 600 nm (OD600) was adjusted to 0.5. Bacteria were incubated with 30 µM 3,3′-diethyloxacarbocyanine iodide (DiOC2(3), Invitrogen™) for 15 min in the dark and treated with serial peptide concentrations for 30 min. The protonophore carbonyl cyanide m-chlorophenyl hydrazone (CCCP, Sigma Aldrich) was used as a positive control and DMSO or 0.01% acetic acid as negative controls. Fluorescence was measured at an excitation wavelength of 485 nm and two emission wavelengths, 530 nm (green) and 630 (nm) red, using a microplate reader (Tecan, Switzerland).

[4] = test system: multidrug resistant bacteria belonging to the ESKAPE pathogen panel; type: cell-based
Method: Bactericidal activity was assessed by broth microdilution assay. […] After incubation, 100 µl of 6% TSB (w/v) were added and absorbance was measured at 600 nm (Tecan, Switzerland) and monitored for 18 h. Afterward, 100 µl per well were plated on LB agar to determine the numbers of viable bacteria microbiologically. Bactericidal activity is expressed as the LC99.9, the lowest concentration that killed ≥99.9 % of bacteria.

[5] = 250 µg orally 6 and 22 h p.i., 48 h after infection, individual animals, N = 12

Structure (SMILES): CCCCCCCCCCCCCCCC(=O)NCCOCCOCC(=O)N[C@@H](CCCNC(=N)N)C(=O)NCC(=O)N[C@@H](CCCCN)C(=O)N[C@@H](C)C(=O)N[C@@H](CCCCN)C(=O)N[C@@H](CS)C(=O)N[C@@H](CS)C(=O)N[C@@H](CCCCN)C(=O)O [Pam-3] ({Palmitoyl-AEEA}-RGKAKCCK-OH; C-terminus assumed)
- S. Typhimurium in cecum content (S. Typhimurium; [5]): 101000000 CFU/ml and 19300000 CFU/ml and 209000000 CFU/ml and 369000000 CFU/ml and 338000000 CFU/ml and 343000000 CFU/ml and 185000000 CFU/ml and 11700000 CFU/ml and 392000000 CFU/ml and 49300000 CFU/ml and 19200000 CFU/ml and 26400000 CFU/ml
- S. Typhimurium in cecum tissue (S. Typhimurium; [5]): 22792020 CFU/ml and 690476 CFU/ml and 510638 CFU/ml and 1770972 CFU/ml and 4139241 CFU/ml and 2249657 CFU/ml and 543580 CFU/ml and 809249 CFU/ml and 1834320 CFU/ml and 538642 CFU/ml and 466793 CFU/ml and 451429 CFU/ml
- S. Typhimurium in small intestine content (S. Typhimurium; [5]): 19170.1 CFU/ml and 3500 CFU/ml and 430000 CFU/ml and 36000 CFU/ml and 2200 CFU/ml and 10400 CFU/ml and 20600 CFU/ml and 69000 CFU/ml and 70112.2 CFU/ml and 111188 CFU/ml and 78651.7 CFU/ml and 1597222 CFU/ml
- S. Typhimurium in small intestine tissue (S. Typhimurium; [5]): 6700.17 CFU/ml and 99601.6 CFU/ml and 75335.4 CFU/ml and 1784.12 CFU/ml and 22916.7 CFU/ml and 29579.1 CFU/ml and 9803.92 CFU/ml and 82191.8 CFU/ml and 12841.1 CFU/ml and 8221.99 CFU/ml and 14925.4 CFU/ml and 10101 CFU/ml
- Body weight (% of initial) (S. Typhimurium; Day 0 of S. Typhimurium infection, individual animals, N = 12): 100
- Body weight (% of initial) (S. Typhimurium; Day 1 of S. Typhimurium infection, 250 µg orally 6 and 22 h p.i., individual animals, N = 12): 94.8627 and 88.6861 and 93.3869 and 93.4108 and 92.7247 and 90.6285 and 93.2755 and 91.8377 and 90.7373 and 93.6733 and 93.6223 and 95.0622
- Body weight (% of initial) (S. Typhimurium; Day 2 of S. Typhimurium infection, 250 µg orally 6 and 22 h p.i., individual animals, N = 12): 94.2562 and 87.7476 and 94.3788 and 93.5562 and 89.4912 and 89.5623 and 93.1887 and 92.315 and 87.1434 and 90.8742 and 93.7891 and 93.0505
- weight loss during infection (in words) (S. Typhimurium; Fig. 6d): tends to reduce weight loss
- CFU of S. Typhimurium in cecum content and tissue vs PBS (in words) (S. Typhimurium; Mann–Whitney p < 0.0001 and p = 0.0409): significantly reduced
- bacterial load in small intestine content vs PBS (in words) (S. Typhimurium; Mann–Whitney p = 0.0024): lowered the bacterial load
- bacterial load in small intestine tissue vs PBS (in words) (S. Typhimurium; Mann–Whitney p = 0.8621): without affecting
- antimicrobial activity (in words) [1]: potent inhibition
- LC99.9 (E. coli 6940 3-MRGN): 9.38 µM
- growth inhibition of colistin- and tigecycline-resistant isolate (in words) [2]: inhibited the growth
- LC99.9 (E. faecium DSM2918 VRE): 9.38 (4.87-9.38) μM
- LC99.9 (S. aureus DSM20213 MRSA): 9.38 (4.87-9.38) μM
- LC99.9 [3]: 9.38 µM
- time to eradication to the level of detection (P. aeruginosa PAO1; 9.38 µM Pam-3): 2 min
- time to killing of more than 90% of bacteria (P. aeruginosa PAO1; 9.38 µM Pam-3): ≤ 1 min
- MIC (P. aeruginosa PAO1; PAO1): 9.38 µM (≈ 12 µg/mL)
- time to eradication to the level of detection (S. aureus ATCC25923; 9.38 µM Pam-3): 30 min
- time to killing of more than 90% of bacteria (S. aureus ATCC25923; 9.38 µM Pam-3): ≤ 15 min
- MIC (S. aureus ATCC25923; ATCC25923): 9.38 µM (≈ 12 µg/mL)
- effect on membrane potential (in words) (S. aureus NCTC8325): breakdown of the membrane potential in a concentration-dependent manner
- effective concentrations (LC99.9) across the panel ([4]; 18 different bacteria, three experiments each): 4.69 to 18.75 µM
- overall measured mean effective concentration ([4]; 18 different bacteria, three experiments each, peer review file): 9.38 µM
- bactericidal activity (in words) ([4]; broth microdilution, ESKAPE panel): highly effective
